The record followed here is patent US9873702B2, “Heterocyclic compounds as biogenic amine transport modulators” (Southern Research Institute, priority 2014, dated 2018).

Data set [1] has as its target dopamine transporter (DAT) (Rattus norvegicus, UniProt P23977). Briefly: Dopamine reuptake ([^3H]dopamine uptake) inhibition in rat brain synaptosomes. As to conditions: for IC50: DA Uptake EC50 (nM ± SD), rat caudate synaptosomes, 5 nM [^3H]dopamine, 15 min, 25° C., three experiments pooled; for Emax: read-out: DA Uptake Emax (% I ± SD).
Description: Freshly removed caudate was homogenized in 10% ice-cold sucrose with 12 strokes of a hand-held Potter-Elvehj em homogenizer followed by centrifugation at 1000×g for 10 min. The supernatants were saved on ice and used immediately. Transporter activity was assessed using 5 nM [^3H]dopamine. […] The selectivity of the uptake assay for dopamine active transporter (DAT) was optimized by including 100 nM citalopram and 100 nM desipramine as blockers of serotonin transporter (SERT) and norepinephrine transporter (NET) in the sucrose solution and assay buffer. Uptake inhibition assays were conducted at 25° C. and were initiated by adding 100 μl of tissue to 900 μL assay buffer containing test drug and [^3H]dopamine. Test drugs were diluted in assay buffer containing 1 mg/mL bovine serum albumin. Nonspecific uptake was measured by incubating in the presence of 10 μM indatraline. The reactions were stopped after 15 minutes by rapid vacuum filtration with a cell harvester (BRANDEL) over GF/B filters (Whatman) presoaked in wash buffer maintained at 25° C. (10 mM Tris-HCl, pH 7.4/150 mM NaCl). Filters were rinsed with 6 mL wash buffer and retained tritium was quantified by a MicroBeta liquid scintillation counter (PerkinElmer) after overnight extraction in 0.6 mL of liquid scintillation cocktail (Cytoscint, ICN). The data from three experiments were pooled and fit to a dose-response curve equation (using Kaleidagraph), to yield an Emax and EC50 value.
The data from three experiments were pooled and fit to a dose-response curve equation (using KaleidaGraph; Synergy Software, Reading, Pa.) to yield an Emax and IC50 value.

A value given as a limit tells only on which side of the number the result lay.

Chain of dopamine transporter (DAT) (P23977 whole entry): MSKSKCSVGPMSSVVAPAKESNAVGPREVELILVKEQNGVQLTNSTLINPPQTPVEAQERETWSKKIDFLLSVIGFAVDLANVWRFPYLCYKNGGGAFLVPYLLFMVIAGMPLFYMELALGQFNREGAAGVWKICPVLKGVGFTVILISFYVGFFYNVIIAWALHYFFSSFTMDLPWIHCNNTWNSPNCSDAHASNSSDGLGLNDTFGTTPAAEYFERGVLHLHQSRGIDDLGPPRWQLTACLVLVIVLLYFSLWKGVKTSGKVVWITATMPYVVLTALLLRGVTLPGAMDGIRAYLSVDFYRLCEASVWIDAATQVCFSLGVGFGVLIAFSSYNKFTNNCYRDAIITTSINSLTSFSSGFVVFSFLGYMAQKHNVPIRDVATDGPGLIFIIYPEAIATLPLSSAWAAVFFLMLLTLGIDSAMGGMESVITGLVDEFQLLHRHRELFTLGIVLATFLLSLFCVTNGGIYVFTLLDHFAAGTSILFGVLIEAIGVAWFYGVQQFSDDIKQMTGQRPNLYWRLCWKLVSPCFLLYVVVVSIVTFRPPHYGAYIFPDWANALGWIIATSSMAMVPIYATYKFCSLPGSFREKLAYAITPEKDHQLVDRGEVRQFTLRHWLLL

Take `CC(C)(C)OC(=O)N[C@H](CNc1nc(-c2ccc3nccn3c2)nc2ccccc12)c1ccccc1` [compound 146, (S)-Tert-Butyl (2-((2-(Imidazo[1,2-A]Pyridin-6-yl)Quinazolin-4-yl)Amino)-1-Phenylethyl)Carbamate]: the melting point was in the range of 252 to 254 °C. Moreover, in data set [1], 414 ± 44 nM corresponded to half-maximal inhibition (IC50) and the Emax turned out to be 65 ± 1%.

Take `c1ccc(C(CCNc2nc(-c3ccc4nccn4c3)nc3ccccc23)c2ccccc2)cc1` [compound 87, N-(3,3-Diphenylpropyl)-2-(Imidazo[1,2-A]Pyridin-6-yl)Quinazolin-4-Amine]: the melting point was found to be 237 °C. Also, in data set [1], it took 78 ± 9 nM to reach half-maximal inhibition (IC50) and the Emax was 75 ± 1%.

Take `Nc1ccc(-c2nc(NCC(c3ccccc3)c3ccccc3)c3ccccc3n2)cn1` [compound 88, 2-(6-Aminopyridin-3-yl)-N-(2,2-Diphenylethyl)Quinazolin-4-Amine]: the melting point is 86 °C. Further, in data set [1], the IC50 was found to be 41 ± 13 nM and the Emax turned out to be 86 ± 5%.

For `c1ccc(C(c2ccccc2)N2CC(Nc3nc(-c4ccc5nccn5c4)nc4ccccc34)C2)cc1` [compound 148, N-(1-Benzhydrylazetidin-3-yl)-2-(Imidazo[1,2-A]Pyridin-6-yl)Quinazolin-4-Amine], the melting point lay in the range of 67 to 69 °C. For the same compound, in data set [1], the IC50 came out at 91 ± 21 nM and the Emax came out at 81 ± 3%.

In the case of `c1ccc(C(CNc2nc(-c3ccc4nccn4c3)nc3ccccc23)N2CCCCC2)cc1` (centres unmarked) [compound 119, 2-(Imidazo[1,2-A]Pyridin-6-yl)-N-(2-Phenyl-2-(Piperidin-1-yl)Ethyl)Quinazolin-4-Amine], the melting point lay in the range of 193 to 195 °C. Also, in data set [1], the IC50 turned out to be 117 ± 35 nM and the Emax was found to be 83 ± 5%.

In turn, `c1ccc(C(CNc2nc(-c3ccc4[nH]cnc4c3)nc3ccccc23)c2ccccc2)cc1` [compound 85, 2-(1H-Benzo [D]Imidazol-5-yl)-N-(2,2-Diphenylethyl)Quinazolin-4-Amine] had a melting point of 142 °C. The IC50 in data set [1] is above 5000 nM.

Turning to `Nc1ncc(-c2nc(NCC(O)(c3ccccc3)c3ccccc3)c3ccccc3n2)cn1` [compound 97, 2-((2-(2-Aminopyrimidin-5-yl)Quinazolin-4-yl)Amino)-1,1-Diphenylethanol], the melting point was determined as 222 °C. In data set [1], the IC50 was determined as 665 ± 150 nM and the Emax came to 90 ± 5%.

On to `c1ccc(C(CNc2nc(-c3ccc4nccn4c3)nc3ccccc23)N2CCCC2)cc1` (centres unmarked) [compound 121, 2-(Imidazo[1,2-A]Pyridin-6-yl)-N-(2-Phenyl-2-(Pyrrolidin-1-yl)Ethyl)Quinazolin-4-Amine], for which the melting point was 205 to 207 °C. In addition, in data set [1], half-maximal inhibition (IC50) was put at 170 ± 50 nM and the Emax worked out at 83 ± 5%.

As to `c1ccc(C(CNc2nc(N3CCc4c([nH]c5ccccc45)C3)nc3ccccc23)c2ccccc2)cc1` [compound 190, 2-(3,4-Dihydro-1H-Pyrido[3,4-B]Indol-2(9H)-yl)-N-(2,2-Diphenylethyl)Quinazolin-4-Amine], the melting point was 185 to 187 °C. For the same compound, in data set [1], the IC50 turned out to be 6.9 ± 2 nM and the Emax is 80 ± 3%.

The compound `Oc1nc2cc(-c3nc(NCC(c4ccccc4)c4ccccc4)c4ccccc4n3)ccc2[nH]1` [compound 79, 5-(4-((2,2-Diphenylethyl)Amino)Quinazolin-2-yl)-1H-Benzo[D]Imidazol-2-ol] showed a melting point of 215 °C. Also, in data set [1], the IC50 came to 51 ± 14 nM and the Emax stood at 94 ± 4%.

`c1ccc(C(CNc2nc(-c3cccc4[nH]ncc34)nc3ccccc23)c2ccccc2)cc1` [compound 35, N-(2,2-Diphenylethyl)-2-(1H-Indazol-4-yl)Quinazolin-4-Amine] displayed a melting point of 229 °C. Moreover, in data set [1], the IC50 was 475 ± 85 nM and the Emax came to 72 ± 3%.

`c1ccc2c(NCC(c3ccncc3)c3ccncc3)nc(-c3ccc4[nH]ccc4c3)nc2c1` [compound 173, N-(2,2-Di(pyridin-4-yl)Ethyl)-2-(1H-Indol-5-yl)Quinazolin-4-Amine]: the melting point was 201 to 202 °C. Moreover, in data set [1], half-maximal inhibition (IC50) was put at 140 ± 30 nM and the Emax is 80 ± 3%.

The compound `Cc1cc2nccn2cc1-c1nc(NCC(c2cccnc2)c2ccc[nH]2)c2ccccc2n1` (centres unmarked) [compound 156, 2-(7-Methylimidazo[1,2-A]Pyridin-6-yl)-N-(2-(Pyridin-3-yl)-2-(1H-Pyrrol-2-yl)Ethyl)Quinazolin-4-Amine] returned a melting point of 121 to 125 °C. Besides, in data set [1], the IC50 stood at 14 ± 3 nM and the Emax is 68 ± 2%.

For the compound `c1ccc(C(CNc2nc(N3CCc4[nH]ccc4C3)nc3ccccc23)c2ccccc2)cc1` [compound 163, 2-(6,7-Dihydro-1H-Pyrrolo[3,2-C]Pyridin-5(4H)-yl)-N-(2,2-Diphenylethyl)Quinazolin-4-Amine], the melting point fell in the range of 166 to 168 °C. Also, in data set [1], half-maximal inhibition (IC50) was put at 3.7 ± 1.5 nM and the Emax turned out to be 87 ± 6%.

In turn, `CC(C)C(CNc1nc(N2CCc3[nH]ccc3C2)nc2ccccc12)c1ccccc1` (centres unmarked) [compound 201, 2-(6,7-Dihydro-1H-Pyrrolo[3,2-c]Pyridin-5(4H)-yl)-N-(3-Methyl-2-Phenylbutyl)Quinazolin-4-Amine] gave a melting point of 221 to 223 °C. In addition, in data set [1], the IC50 was 7.2 ± 2.6 nM and the Emax turned out to be 88 ± 5%.

`Cc1cc2nccn2cc1-c1nc(NCC(c2ccncc2)c2ccncc2)c2ccccc2n1` [compound 157, N-(2,2-Di(Pyridin-4-yl)Ethyl)-2-(7-Methylimidazo[1,2-A]Pyridin-6-yl)Quinazolin-4-Amine] showed a melting point of 170 to 175 °C. Moreover, in data set [1], the IC50 came to 15 ± 3 nM and the Emax is 74 ± 2%.

As for `Cn1ccc2cc(-c3nc(NCC(c4ccccc4)c4cccnc4)c4ccccc4n3)ccc21` (centres unmarked) [compound 137, 2-(1-Methyl-1H-Indol-5-yl)-N-(2-Phenyl-2-(Pyridin-3-yl)Ethyl)Quinazolin-4-Amine], the melting point was 91 to 93 °C. Also, in data set [1], the IC50 turned out to be 44 ± 8 nM and the Emax is 76 ± 2%.

On to `c1ccc(C(CNc2nc(-c3cc4ccccc4[nH]3)nc3ccccc23)c2ccccc2)cc1` [compound 42, N-(2,2-Diphenylethyl)-2-(1H-Indol-2-yl)Quinazolin-4-Amine], for which the melting point stood at 93 °C. In addition, in data set [1], the IC50 is 200 nM and the Emax was below 100%.

Regarding `c1ccc(C(CNc2nc(-c3cnc4[nH]ccc4c3)nc3ccccc23)c2ccccc2)cc1` [compound 123, N-(2,2-Diphenylethyl)-2-(1H-Pyrrolo[2,3-B]Pyridin-5-yl)Quinazolin-4-Amine], the melting point came out at 193 °C. Moreover, in data set [1], the half-inhibitory concentration (IC50) came to 31 ± 5 nM and the Emax stood at 69 ± 2%.

Consider `c1ccc(C(CNc2nc(-c3cn[nH]c3)nc3ccccc23)c2ccccc2)cc1` [compound 75, N-(2,2-Diphenylethyl)-2-(1H-Pyrazol-4-yl)Quinazolin-4-Amine], for which the melting point is 233 °C. Also, in data set [1], 62 nM corresponded to half-maximal inhibition (IC50) and the Emax came out at 100%.

In turn, `c1ccc(C(CCNc2nc(-c3cccs3)nc3ccccc23)c2ccccc2)cc1` [compound 7, N-(3,3-Diphenylpropyl)-2-(thiophen-2-yl)quinazolin-4-amine] showed a melting point of 152 to 155 °C. In data set [1], half-maximal inhibition (IC50) was put at 910 nM and the Emax amounted to 100%.

Compound `Cc1cc2nccn2cc1-c1nc(NCC(c2ccccc2)C2CC2)c2ccccc2n1` (centres unmarked) [compound 179, N-(2-Cyclopropyl-2-Phenylethyl)-2-(7-Methylimidazo[1,2-A]Pyridin-6-yl)Quinazolin-4-Amine] returned a melting point of 236 to 238 °C. Also, in data set [1], the midpoint of inhibition, the IC50, lay at 3 ± 1 nM and the Emax came out at 80 ± 4%.

In turn, `c1ccc(CC(Nc2nc(-c3ccc4nccn4c3)nc3ccccc23)c2ccccc2)cc1` (centres unmarked) [compound 165, N-(1,2-Diphenylethyl)-2-(Imidazo[1,2-A]pyridin-6-yl)Quinazolin-4-Amine] displayed a melting point of 203 to 204 °C. Moreover, in data set [1], the IC50 came to 14 ± 2 nM and the maximum response (Emax) came out at 78 ± 2%.

As to `Nc1ncc(-c2nc(NCC(c3ccccc3)c3ccncc3)c3ccccc3n2)cn1` (centres unmarked) [compound 107, 2-(2-Aminopyrimidin-5-yl)-N-(2-Phenyl-2-(Pyridin-4-yl)Ethyl)Quinazolin-4-Amine], the melting point worked out at 219 °C. For the same compound, in data set [1], the IC50 was 197 ± 40 nM and the maximal response (Emax) is 81 ± 3%.

For `Cc1cc2nccn2cc1-c1nc(NCC(CN(C)C)c2ccccc2)c2ccccc2n1` (centres unmarked) [compound 192, N1,N1-Dimethyl-N3-(2-(7-Methylimidazo[1,2-A]Pyridin-6-yl)Quinazolin-4-yl)-2-Phenylpropane-1,3-Diamine], the melting point is 250 to 252 °C. In data set [1], the IC50 is 10 ± 3 nM and the Emax turned out to be 77 ± 4%.

The compound `Cc1cc2nccn2cc1-c1nc(NCCc2ccncc2)c2ccccc2n1` [compound 181, 2-(7-Methylimidazo[1,2-A]Pyridin-6-yl)-N-(2-(Pyridin-4-yl)Ethyl)Quinazolin-4-Amine] displayed a melting point of 234 to 236 °C. Moreover, in data set [1], half-maximal inhibition (IC50) was put at 85 ± 5 nM and the Emax came out at 72 ± 1%.

In turn, `c1ccc(C(CNc2nc(-c3cnc(N4CCCCC4)nc3)nc3ccccc23)c2ccccc2)cc1` [compound 38, N-(2,2-Diphenylethyl)-2-(2-(Piperidin-1-yl)Pyrimidin-5-yl)Quinazolin-4-Amine] showed a melting point of 92 °C. Also, in data set [1], inhibition was half-maximal at 1420 nM (IC50) and the Emax worked out at 100%.

Compound `c1ccc(C(Nc2nc(-c3ccc4nccn4c3)nc3ccccc23)c2ccccc2)cc1` [compound 86, N-Benzhydryl-2-(Imidazo[1,2-A]Pyridin-6-yl)Quinazolin-4-Amine] showed a melting point of 258 °C. Further, in data set [1], 55 ± 6 nM corresponded to half-maximal inhibition (IC50) and the Emax amounted to 70 ± 1%.

`Cc1cc2nccn2cc1-c1nc(NCC(Cc2ccccc2)Cc2ccccc2)c2ccccc2n1` [compound 182, N-(2-Benzyl-3-Phenylpropyl)-2-(7-Methylimidazo[1,2-A]Pyridin-6-yl)Quinazolin-4-Amine] showed a melting point of 181 to 184 °C. Moreover, in data set [1], the IC50 was found to be 8.3 ± 0.9 nM and the maximum response (Emax) is 75 ± 1%.
